Calls of active or inactive are those of the source. The rule behind the calls is not given here.
Assays:
Plasmodium falciparum [1] = assay: Antiplasmodial activity against chloroquine-resistant Plasmodium falciparum W2 by [3H]hypoxanthine incorporation; format: functional, organism-based
KB = assay: Cytotoxicity against human KB cells; format: functional; conditions: read-out: ED50 (the source's name)
Plasmodium falciparum [2] = assay: Antiplasmodial activity against chloroquine-sensitive Plasmodium falciparum 3D7 by [3H]hypoxanthine incorporation; format: functional, organism-based
Plasmodium falciparum [3] = assay: Antiplasmodial activity against chloroquine-resistant Plasmodium falciparum K1 by [3H]hypoxanthine incorporation; format: functional, organism-based
Plasmodium falciparum [4] = assay: Antiplasmodial activity against chloroquine-sensitive Plasmodium falciparum D10 by [3H]hypoxanthine incorporation; format: functional, organism-based
Mus musculus [5] = assay: Survival of Plasmodium Berghei ANKA infected BALB/c mice (Mus musculus) at 30 mg/kg, intraperitoneally; format: functional, organism-based; set-up: dose 30 mg/kg
Plasmodium berghei [6] = assay: Antimalarial activity against Plasmodium berghei ANKA infected BALB/c mice (Mus musculus) as reduced parasitaemia at 30 mg/kg intraperitoneal dose after 4 days; format: functional; set-up: scale not given: the % may be the effect or the level left
Mus musculus [7] = assay: Survival of Plasmodium Berghei ANKA infected BALB/c mice (Mus musculus) at 10 mg/kg, intraperitoneally; format: functional, organism-based; set-up: dose 10 mg/kg
[8] = target: T1, Histidine-rich protein PFHRP-II (Plasmodium falciparum) (UniProt P05227); assay: Inhibition of beta-hematin formation by BHIA; format: functional
T1 sequence (whole entry): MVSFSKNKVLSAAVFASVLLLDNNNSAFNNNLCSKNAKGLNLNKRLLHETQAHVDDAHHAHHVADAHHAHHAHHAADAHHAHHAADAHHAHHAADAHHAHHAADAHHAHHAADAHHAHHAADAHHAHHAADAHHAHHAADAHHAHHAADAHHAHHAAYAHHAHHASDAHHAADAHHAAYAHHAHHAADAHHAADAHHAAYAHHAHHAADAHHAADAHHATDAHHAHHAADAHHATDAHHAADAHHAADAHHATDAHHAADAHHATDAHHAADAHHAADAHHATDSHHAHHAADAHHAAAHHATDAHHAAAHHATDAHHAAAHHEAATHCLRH

Plasmodium berghei [9] = assay: Reduced parasitemia in Plasmodium berghei ANKA infected BALB/c mice (Mus musculus) at 10 mg/kg intraperitoneal dose after 4 days; format: functional; set-up: scale not given: the % may be the effect or the level left

Row | Structure (SMILES) | IC50 (Plasmodium falciparum [1]) [nM] | EC50 (KB) [nM] | IC50 (Plasmodium falciparum [2]) [nM] | IC50 (Plasmodium falciparum [3]) [nM] | IC50 (Plasmodium falciparum [4]) [nM] | Activity (Mus musculus [5]) | Activity (Plasmodium berghei [6]) [%] | Activity (Mus musculus [7]) | Activity [8] | Activity (Plasmodium berghei [9]) [%]
1 | Cn1cncc1/C=N/Nc1ccnc2cc(Cl)ccc12 | 249 | 73800 | 48.9 | 385 | 174 |  |  |  |  | 
2 | Clc1ccc2c(N/N=C/c3cccnc3)ccnc2c1 | 814 |  |  |  | 607 |  |  |  |  | 
3 | COc1ccc2nc3cc(Cl)ccc3c(N/N=C/c3ccc(CN4CCCC4)cc3)c2c1 |  |  |  |  |  | Active | 19 |  |  | 
4 | COc1ccc2nc(C)cc(N/N=C/c3ccc4c(c3)OCO4)c2c1 | 184 |  | 507 | 149 | 132 |  |  |  |  | 
5 | COc1ccc2nccc(N/N=C/c3ccc(N4CCCC4)cc3)c2c1 | 185 |  | 404 | 462 | 115 |  |  |  |  | 
6 | Oc1cc(/C=N/Nc2ccnc3cc(Cl)ccc23)ccc1CN1CCCC1 | 18.9 | 152000 | 0.9 | 39.6 | 21.4 | Active | 71 |  |  | 
7 | Clc1ccc2c(N/N=C/c3ccncc3)ccnc2c1 | 627 |  |  |  | 570 |  |  |  |  | 
8 | COc1ccc(/C=N/Nc2ccnc3c(OC)cccc23)cc1 | 903 |  | 326 | 769 | 715 |  |  |  |  | 
9 | Cc1cc(N/N=C/c2ccc3c(c2)OCO3)c2ccc(Cl)cc2n1 | 281 |  |  |  | 122 |  |  |  |  | 
10 | COc1ccc(/C=N/Nc2ccnc3ccc(OC)cc23)cc1 |  |  | 65.1 |  |  |  | 38 |  |  | 
11 | COc1cccc(/C=N/Nc2cc(C)nc3cc4c(cc23)OCO4)c1 | 229 |  | 4980 |  | 197 |  |  |  |  | 
12 | CCN(CC)c1ccc(/C=N/Nc2ccnc3c(OC)cccc23)cc1 | 791 |  | 206 | 125 | 442 |  |  |  |  | 
13 | C(=N\Nc1ccnc2cc3c(cc12)OCO3)/c1ccc(CN2CCCC2)cc1 | 46.5 |  | 26.7 | 58 | 35.6 |  |  |  |  | 
14 | CCN(CC)CCCC(C)Nc1ccnc2cc(Cl)ccc12 (configuration not stated) [CHLOROQUINE] |  | 260000 |  |  |  |  |  | Active | Dose-dependent effect | 98
15 | COc1ccc2nc3cc(Cl)ccc3c(N/N=C/c3ncc[nH]3)c2c1 |  | 5100 |  |  |  | Active | 40 |  |  | 
16 | Clc1ccc2c(N/N=C/c3cnc[nH]3)ccnc2c1 | 140 | 29100 | 152 | 626 | 453 |  |  |  |  | 
17 | Clc1ccc2c(N/N=C/c3cccs3)ccnc2c1 | 855 | 10400 | 167 | 577 | 504 |  |  |  |  | 
18 | CCN(CC)c1ccc(/C=N/Nc2ccnc3ccc(OC)cc23)cc1 | 166 |  | 22.9 | 172 | 142 |  |  |  |  | 
19 | CCN(CC)c1ccc(/C=N/Nc2ccnc3cc(Cl)ccc23)cc1 | 250 |  | 300 |  | 175 |  |  |  |  | 
20 | CN(C)c1ccc(/C=N/Nc2ccnc3cc(Cl)ccc23)cc1 | 383 |  | 308 | 1140 | 325 |  |  |  |  | 
21 | Cc1noc(C)c1/C=N/Nc1ccnc2cc(Cl)ccc12 | 509 | 171000 | 125 | 2130 | 347 |  |  |  |  | 
22 | Clc1ccc2c(N/N=C/c3ccc(N4CCCC4)cc3)ccnc2c1 | 190 |  | 855 | 427 | 189 |  |  |  |  | 
23 | Clc1ccc2c(N/N=C/c3ncc[nH]3)ccnc2c1 | 23.7 | 19500 | 5.9 | 31.6 | 65.2 |  |  |  | Dose-dependent effect | 
24 | FC(F)(F)c1ccc(-c2n[nH]cc2/C=N/Nc2ccnc3cc(Cl)ccc23)cc1 | 258 | 1200 | 5 | 39.6 | 186 |  |  |  | Dose-dependent effect | 

Row | Structure (SMILES) | IC50 (Plasmodium falciparum [1]) [nM] | EC50 (KB) [nM] | IC50 (Plasmodium falciparum [2]) [nM] | IC50 (Plasmodium falciparum [3]) [nM] | IC50 (Plasmodium falciparum [4]) [nM] | Activity (Mus musculus [5]) | Activity (Plasmodium berghei [6]) [%] | Activity (Mus musculus [7]) | Activity [8] | Activity (Plasmodium berghei [9]) [%]
25 | COc1ccc2nccc(N/N=C/c3ccc4c(c3)OCO4)c2c1 | 197 |  |  |  | 132 |  |  |  |  | 
26 | O=S(=O)(NNc1ccnc2cc(Cl)ccc12)c1cccc2ccccc12 | 2530 |  | 2160 | 599 | 4270 |  |  |  |  | 
27 | COc1ccc(/C=N/Nc2cc(C)nc3ccc(OC)cc23)cc1 | 150 |  | 31.1 | 62.3 | 103 |  |  |  |  | 
28 | COc1cccc2c(N/N=C/c3ccc4ccccc4n3)cc(C)nc12 | 324 |  | 789 | 117 | 404 |  |  |  |  | 
29 | C(=N\Nc1c2c(nc3ccccc13)CCCC2)/c1ccc2c(c1)OCO2 | 923 |  |  |  | 618 |  |  |  |  | 
30 | Cc1cccc(/C=N/Nc2ccnc3cc(Cl)ccc23)n1 | 760 |  |  |  | > 3000 |  |  |  |  | 
31 | Clc1ccc2c(N/N=C/c3ccc4c(c3)OCO4)ccnc2c1 | 203 |  | 400 | 30.7 | 184 |  |  |  |  | 
32 | Cc1cccc(/C=N/Nc2cc(C)nc3cc(Cl)ccc23)n1 | 1310 |  |  |  | 1160 |  |  |  |  | 
33 | Clc1ccc2c(N/N=C/c3ccco3)ccnc2c1 | 1390 | 19900 | 169 | 824 | 949 |  |  |  | Dose-dependent effect | 
34 | COc1cc2ccccc2cc1/C=N/Nc1ccnc2cc(Cl)ccc12 | 169 |  | 31.8 | 63.7 | 145 |  |  |  |  | 
35 | Cn1ccnc1/C=N/Nc1ccnc2cc(Cl)ccc12 | 86.9 | 17100 | 61.5 | 270 | 197 |  |  |  |  | 
36 | COc1ccc2nccc(N/N=C/c3ccc4ccccc4n3)c2c1 | 96 |  | 125 | 159 | 73 |  |  |  |  | 
37 | CCN(CC)Cc1ccc(/C=N/Nc2ccnc3cc(Cl)ccc23)cc1 | 57.7 |  | 2.7 | 27.2 | 48.3 |  |  |  |  | 
38 | Clc1ccc2c(N/N=C/c3ccc[nH]3)ccnc2c1 | 256 | 4800 | 25.8 | 53.1 | 210 |  |  |  |  | 
39 | CCN(CC)c1ccc(/C=N/Nc2c3c(nc4ccccc24)CCCC3)cc1 | 1470 |  | 1080 |  | 986 |  |  |  |  | 
40 | COc1ccc(/C=N/Nc2c3c(nc4ccccc24)CCCC3)cc1 | 2360 |  |  |  | 942 |  |  |  |  | 
41 | O=C(NNc1ccnc2cc(Cl)ccc12)c1c[nH]cn1 | > 10000 |  | 8830 | > 10000 | > 10000 |  |  |  |  | 
42 | COc1ccc2nccc(N/N=C/c3ccc(CN4CCCC4)cc3)c2c1 | 99.4 |  | 16.7 | 86.1 | 24.8 |  |  |  |  | 
43 | O=C(NNc1ccnc2cc(Cl)ccc12)c1ncc[nH]1 | > 10000 |  | 5460 | > 10000 | 6470 |  |  |  |  | 
44 | CCOc1ccc2c(N/N=C/c3ccc(OC)cc3)cc(C)nc2c1 | 232 |  | 805 | 537 | 212 |  |  |  |  | 
45 | Cc1ccc(S(=O)(=O)NNc2ccnc3cc(Cl)ccc23)cc1 | 5060 |  | 3020 | 8460 | 5840 |  |  |  |  | 
46 | COc1ccc(/C=N/Nc2c3c(nc4cc(Cl)ccc24)CCCC3)cc1 | 1330 |  | 930 | 2640 | 760 |  |  |  |  | 
47 | Clc1ccc2c(N/N=C/c3ccc(CN4CCCC4)cc3)ccnc2c1 |  | 19500 |  |  |  | Active | 83 |  | Dose-dependent effect | 
48 | COc1ccc2c(N/N=C/c3ccc4ccccc4n3)ccnc2c1 | 140 |  |  | 213 | 108 |  |  |  |  | 

— ChEMBL document CHEMBL1142372, “Design, synthesis, and structure-activity relationship studies of 4-quinolinyl- and 9-acrydinylhydrazones as potent antimalarial agents” (J Med Chem, 2008)
